Test results as given in patent US6403647B1, “Pulsed administration of compositions for the treatment of blood disorders” (priority 1996, dated 2002).
“Also recorded” adds a separate entry of the source.

What was measured:
[1] = tested on: system A transport of amino acids; assay: Uptake of 3H-methyl-aminoisobutyric acid (MeAIB) into erythroblasts; assay type: cell-based
Procedure: Erythroblasts were tested for alterations in uptake of radio-labelled amino acid (^3H-methyl-aminoisobutyric acid; MeAIB) in the presence of AB (arginine butyrate), AMHCA (α-methylhydrocinnamic acid), PAA (phenoxyacetic acid), and IBT (isobutyramide), each at 2.0 mM.

[2] = Weekly versus pulse butyrate therapy in sickle cell and beta thalassemia patients; assay type: in vivo, human; parameters: F-retics On / F-cells On: unit not given here
Procedure: To determine if arginine butyrate can be used for therapeutic benefit, two low-dose regimens of butyrate were studied. Treatment were given intermittently either weekly, or in a pulse fashion, at 2-3 week intervals. […]
Patients were treated by pulse therapy for 4-18 months with arginine butyrate. […] It is preferred to avoid prolonged treatment with high doses of butyrate, which cause cellular growth arrest in G1, and can enhance the accelerated apoptosis of beta thalassemia. Partial tolerance observed with long-term weekly therapy appears related to erythroid cell growth arrest and a decline in EPO levels as Hgb and Hct rise and depletion of available iron stores. Treatment with additional doses of iron supplements can overcome some of the anti-proliferative activities of butyrate in vitro. Time required on therapy has been only 25%-35% of the treatment days per month necessary for effective transfusion and iron chelation. This has improved the quality of life of some patients.
To determine if these potentially opposing actions can be balanced for therapeutic effect, two intermittent schedules of butyrate were compared in 21 treatment courses in 14 patients ages 3 to 55 years, with sickle cell disease or β thalassemia. An optimal dose was identified on an individual patient regimen and continued on a weekly basis in eleven patients. Providing 7 to 14 days without any drug exposure to facilitate proliferation of treated cells, an alternate week regimen or pulse therapy, was administered to twelve patients (see Tables V, VI and VI).
A series of ten patients with sickle cell anemia and β-thalassemia were treated with continuous therapy with arginine butyrate. In 3 out of 4, transfusion requirement was diminished. […] The mean peak in total HgB which was detectable in the ten patients over their baseline was 1.6 gm/dl.
Patients were next administered a pulse therapy regimen. Each session comprised eight to twelve hours of nightly infusions. […] Total increases in Hgb were sustained as high as 3.0 g/dl above baseline levels with a mean increase of 2.1 g/dl in 8 out of 12 patients (p<0.05, paired t-test, chi square).

[3] = DNA fragmentation assays (cell viability); assay type: cell-based
Text: Normal cell viability, the viability of an untransformed or uninfected cell, can be determined from analyzing the effects of the composition on one or more biological processes of the cell. Detrimental interference with one or more of these cellular processes becomes significant when the process becomes abnormal. Examples of quantitatable and qualifiable biological processes include the processes of cell division, protein synthesis, nucleic acid (DNA or RNA) synthesis, nucleic acid (principally DNA) fragmentation and apoptosis. Others processes include specific enzyme activities, the activities of the cellular transportation systems such as the transportation of amino acids by system A (neutral), system B (acidic) or system C (basic), and the expression of a cell surface protein. […] Abnormal cell division, for example, can be mitosis which occurs too rapidly, as in a malignancy, or unstably, resulting in programmed cell death or apoptosis, detected by increased DNA degradation. The determination of abnormal cell viability can be made on comparison with untreated control cells. Compositions preferably increase normal cell viability. Increased cell viability can be determined by those of ordinary skill in the art using, for example, DNA fragmentation analysis. […] Determinations of increased or decreased viability can also be concluded from an analysis of the results of multiple different assays. Where multiple tests provide conflicting results, accurate conclusions can still be drawn by those of ordinary skill based upon the cell type, the correctness or correlation of the tests with actual conditions and the type of composition.
Patients with blood disorders are typically quite infirm with, for example, iron damaged organs and systems. Most treatments further tax the patient's already frail health in an effort to combat the disorder.

[4] = Half-life; conditions: in vivo
[5] = pulse therapy, 4/6 severe thalassemia patients
[6] = weekly therapy, patient Hb SS, 24 weeks
[7] = weekly therapy, patient HbSS, 4 weeks
[8] = weekly therapy, patient frameshift 5, 5 weeks
[9] = weekly therapy, patient β-39,-39, 8 weeks
[10] = weekly therapy, patient βIVS I, 1-6, 40 weeks

Substance: arginine butyrate
- amino acid (MeAIB) uptake / transport ([1]; 2.0 mM, relative to untreated fetal liver erythroid cells): inhibited amino acid uptake
- inhibition of MeAIB uptake ([1]; after 60 and 120 minutes): most significant
- fetal hemoglobin levels ([2]; 4 days, infusions about 8 hours per day, followed by 7 days of no treatment): rise substantially
- patients with diminished transfusion requirement ([2]; continuous therapy): 3 out of 4
- mean peak in total HgB over baseline ([2]; continuous therapy, ten patients): 1.6 gm/dl
- patients responding hematologically ([2]; intermittent pulse therapy): 8/10
- transfusion-dependency ([2]; pulse regimen, thalassemia major): eliminated previous transfusion-dependency; also recorded: Transfusion-dependency was eliminated
- hematologic responses above baseline levels ([2]; pulse therapy): 2-5 gram/dl
- patients with fetal globin genes reactivated to a hematologically compensating degree ([2]; pulse therapy for 4-18 months): 8 out of 12
- total increases in Hgb above baseline, sustained ([2]; pulse therapy regimen): ≤ 3.0 g/dL
- mean increase in Hgb above baseline ([2]; pulse therapy regimen, 8 out of 12 patients): 2.1 g/dL
- increase in total Hb levels [2, 5]: 2-3 grams/dl
- total Hb level reached [2, 5]: > 9.0 gm/dl
- Hb F reached ([2]; pulse therapy, patient): 29%
- Increase in Total Hgb ([2]; pulse therapy, patient HbE/?, 15 weeks): 1.7 g/dL
- Non-∀/∀* On (non-α: α globin chain synthesis ratios) ([2]; pulse therapy, patient HbE/?, 15 weeks, Base 0.17): 0.25
- F-cells On ([2]; pulse therapy, patient HbE/?, 15 weeks, Base 79): 84
- Percent HbF On ([2]; pulse therapy, patient HbSS, 7 weeks, Base 0.5): 1.5%
- F-retics On ([2]; pulse therapy, patient HbSS, 7 weeks, Base 8): 9.3
- F-cells On ([2]; pulse therapy, patient HbSS, 7 weeks, Base 11): 8
- Percent HbF On ([2]; pulse therapy, patient HbSS, 9 weeks, Base 0.5): 1.0%
- F-retics On ([2]; pulse therapy, patient HbSS, 9 weeks, Base 0.7): 6.7
- F-cells On ([2]; pulse therapy, patient HbSS, 9 weeks, Base 15): 0.5
- Increase Total Hgb ([2]; pulse therapy, patient HbSS, 11 weeks): +1.0 g/dl
- Percent HbF On ([2]; pulse therapy, patient HbSS, 11 weeks, Base 3): 24%
- F-retics On ([2]; pulse therapy, patient HbSS, 11 weeks, Base 18): 25
- F-cells On ([2]; pulse therapy, patient HbSS, 11 weeks, Base 28): 58
- Increase Total Hgb ([2]; pulse therapy, patient HbSS, 15 weeks): +2.0 g/dl
- Percent HbF On ([2]; pulse therapy, patient HbSS, 15 weeks, Base 6.9): 22%
- F-retics On ([2]; pulse therapy, patient HbSS, 15 weeks, Base 12.6): 24
- F-cells On ([2]; pulse therapy, patient HbSS, 15 weeks, Base 23): 59
- Increase Total Hgb ([2]; pulse therapy, patient HbSS, 18 weeks): +2.0 g/dl
- Percent HbF On ([2]; pulse therapy, patient HbSS, 18 weeks, Base 8): 35%
- F-retics On ([2]; pulse therapy, patient HbSS, 18 weeks, Base 35): 46
- F-cells On ([2]; pulse therapy, patient HbSS, 18 weeks, Base 50): 65
- Increase Total Hgb ([2]; pulse therapy, patient HbSS, 28 weeks): +1.0 g/dl
- Percent HbF On ([2]; pulse therapy, patient HbSS, 28 weeks, Base 6): 29%
- F-retics On ([2]; pulse therapy, patient HbSS, 28 weeks, Base 18): 36
- F-cells On ([2]; pulse therapy, patient HbSS, 28 weeks, Base 42): 56
- Non-∀/∀* On (non-α: α globin chain synthesis ratios) ([2]; pulse therapy, patient frameshift-5, 24 weeks, Base 0.5): 0.75
- F-cells On ([2]; pulse therapy, patient frameshift-5, 24 weeks, Base 100): 100
- Increase in Total Hgb ([2]; pulse therapy, patient β-39-87, 68 weeks): 3.6 g/dL
- Non-∀/∀* On (non-α: α globin chain synthesis ratios) ([2]; pulse therapy, patient β-39-87, 68 weeks, Base 0.6): 1.1
- F-cells On ([2]; pulse therapy, patient β-39-87, 68 weeks, Base 29): 100
- Increase in Total Hgb ([2]; pulse therapy, patient β-39, 7 weeks): 3.0 g/dL
- Non-∀/∀* On (non-α: α globin chain synthesis ratios) ([2]; pulse therapy, patient β-39, 7 weeks, Base 0.4): 0.9
- F-cells On ([2]; pulse therapy, patient β-39, 7 weeks, Base 100): 100
- Increase in Total Hgb ([2]; pulse therapy, patient βIVS I-1, 4 weeks): 2.1 g/dL
- Non-∀/∀* On (non-α: α globin chain synthesis ratios) ([2]; pulse therapy, patient βIVS I-1, 4 weeks, Base 0.5): 0.9
- F-cells On ([2]; pulse therapy, patient βIVS I-1, 4 weeks, Base 100): 100
- Non-∀/∀* On (non-α: α globin chain synthesis ratios) ([2]; pulse therapy, patient βIVS II, 33 weeks, Base 0.5): 0.7
- F-cells On ([2]; pulse therapy, patient βIVS II, 33 weeks, Base 10): 16
- patients with desired hematologic responses ([2]; pulse therapy, sickle cell and beta thalassemia patients): 8 of 12
- adverse side effects ([2]; up to 17 months of home therapy and 350 weeks of patient treatment): No significant adverse side effects
- Hb F responses ([2]; weekly therapy): 4-10%
- patients with biochemical (Hb F) responses ([2]; weekly therapy): 8/10
- patients with biochemical increases in fetal globin expression ([2]; weekly therapy): 8/11
- rises in total hemoglobin, mean ([2]; weekly therapy): 1.6 gm/dl
- increases in total Hb above baseline levels ([2]; weekly therapy, in 6/10): 1-4 gram/dl
- Comments [2, 6]: response declined
- Increase in Total Hgb [2, 6]: +2.0 gm/dl
- F-retics On ([2]; weekly therapy, patient Hb SS, 24 weeks, Base 12.7): 35.3
- Comments ([2]; weekly therapy, patient HbE/?, 9 weeks): transfusions cont.
- F-retics On ([2]; weekly therapy, patient HbE/?, 9 weeks, Base 42): 52.7
- Comments ([2]; weekly therapy, patient HbS, β-39, 6 weeks): transfusions cont.
- F-retics On ([2]; weekly therapy, patient HbS, β-39, 6 weeks, Base 4): 20
- Comments [2, 7]: response declined
- Increase in Total Hgb [2, 7]: +1.0 gm/dl
- F-retics On ([2]; weekly therapy, patient HbSS, 4 weeks, Base 14): 30.7
- Comments [2, 8]: response declined
- Increase in Total Hgb [2, 8]: +1.0 gm/dl
- F-retics On ([2]; weekly therapy, patient frameshift 5, 5 weeks, Base 0.5): 1
- Comments ([2]; weekly therapy, patient β(-39-39), 8 weeks): AIHA, trans. cont.
- F-retics On ([2]; weekly therapy, patient β(-39-39), 8 weeks, Base 60): 77
- Comments [2, 9]: plateaued
- Increase in Total Hgb [2, 9]: 1.5 gm/dl
- F-retics On ([2]; weekly therapy, patient β-39,-39, 8 weeks, Base 76): 68
- Increase in Total Hgb ([2]; weekly therapy, patient β-39-87, 16 weeks): +2.3 gm/dl
- F-retics On ([2]; weekly therapy, patient β-39-87, 16 weeks, Base 64.7): 67.3
- Comments [2, 10]: response declined
- Increase in Total Hgb [2, 10]: +4.3 gm/dl
- F-retics On ([2]; weekly therapy, patient βIVS I, 1-6, 40 weeks, Base 56): 75
- Increase in Total Hgb ([2]; weekly therapy, patient βIVS II-745, 7 weeks): 3 gm/dl
- F-retics On ([2]; weekly therapy, patient βIVS II-745, 7 weeks, Base 4): 16
- rises in total hemoglobin, mean ([2]; weekly therapy, the 6 responsive patient (6/9 treated)): 2.4 gm/dl
- cell viability in DNA fragmentation assays [3]: decrease cell viability
- half-life [4]: 15 min
